Data published in patent US12509459B2, “Inhibitors of NLRP3 inflammasome” (BioAge Labs, Inc., priority 2024, dated 2025).

What follows are molecules tested against NLRP3 (Homo sapiens, UniProt Q96P20) (assay: THP-1 cell-based NLRP3 activation assay). Conditions: PMA-differentiated THP-1 cells, LPS 100 ng/mL then 10 μM nigericin.
Parameters: endogenous in cells; host or cells: THP-1 cells (PMA-differentiated, LPS-primed, nigericin-stimulated)
Method: THP-1 cells are cultured in complete media (CM) until they reach logarithmic growth and achieve a viability >90%. CM is composed of RPMI-1640 (+Glutamax)/10% fetal bovine serum/55 μM β-mercaptoethanol/pen/strep. Cells are spun down and resuspended to 1,000,000 cells/mL in CM containing either 20 nM or 500 nM PMA. 150,000 cells (150 μL) are then added to each well of a 96-well TC plate and incubated for either 24 hr or 3 hr, respectively, in a standard cell culture incubator (37° C.; 5% CO2). After this incubation, the plate is tilted and media carefully removed. 200 μL of CM containing 100 ng/mL LPS is then added to the wells and the cells incubated an additional 3 hrs. The media is again removed and replaced with Opti-Mem medium containing pre-determined dilutions of test compounds in replicate wells. After a 30 min incubation, 10 μM nigericin (final concentration) in Opti-Mem medium with the corresponding concentration of compound is added to the wells for an additional 1 hr. Positive control wells contain 10 μM nigericin in Opti-Mem in the absence of test compound, while negative control wells contain Opti-Mem only. […] Once supernatants are removed, the relative viability of adherent cells in the 96-well TC plate are determined using a CellTiter-Glo® luminescent cell viability assay (Promega).

Chain of NLRP3 (Q96P20 whole entry): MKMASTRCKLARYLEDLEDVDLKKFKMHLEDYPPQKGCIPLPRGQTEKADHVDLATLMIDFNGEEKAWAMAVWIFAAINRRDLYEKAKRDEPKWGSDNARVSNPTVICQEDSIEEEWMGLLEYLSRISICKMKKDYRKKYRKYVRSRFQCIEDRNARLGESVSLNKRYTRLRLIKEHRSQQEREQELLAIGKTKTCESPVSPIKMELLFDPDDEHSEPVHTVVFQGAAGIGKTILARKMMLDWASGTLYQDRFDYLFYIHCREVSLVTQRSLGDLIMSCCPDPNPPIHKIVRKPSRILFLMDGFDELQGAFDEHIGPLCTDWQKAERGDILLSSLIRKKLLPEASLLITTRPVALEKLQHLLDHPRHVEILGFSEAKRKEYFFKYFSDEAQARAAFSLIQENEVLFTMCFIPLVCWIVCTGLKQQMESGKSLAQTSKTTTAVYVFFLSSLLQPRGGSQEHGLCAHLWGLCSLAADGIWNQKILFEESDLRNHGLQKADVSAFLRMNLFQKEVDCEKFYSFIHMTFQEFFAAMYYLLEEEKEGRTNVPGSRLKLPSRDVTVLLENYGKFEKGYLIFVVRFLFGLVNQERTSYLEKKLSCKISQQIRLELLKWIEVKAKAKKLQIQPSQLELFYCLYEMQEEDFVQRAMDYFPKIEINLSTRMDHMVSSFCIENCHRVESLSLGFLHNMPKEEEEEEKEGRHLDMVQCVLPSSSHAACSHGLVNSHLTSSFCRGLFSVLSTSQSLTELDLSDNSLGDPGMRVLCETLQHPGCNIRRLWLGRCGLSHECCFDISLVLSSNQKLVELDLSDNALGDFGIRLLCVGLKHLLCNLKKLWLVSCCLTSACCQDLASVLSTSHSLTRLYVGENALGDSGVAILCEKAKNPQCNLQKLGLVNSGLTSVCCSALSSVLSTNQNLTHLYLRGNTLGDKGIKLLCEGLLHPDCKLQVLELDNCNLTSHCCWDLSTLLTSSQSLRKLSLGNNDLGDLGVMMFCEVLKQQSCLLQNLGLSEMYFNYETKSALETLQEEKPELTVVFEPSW

| IC50 | SMILES |
| --- | --- |
| < 100 nM | CCOc1cc(C(=O)N(C)[C@H](c2cncc3cn[nH]c23)[C@H]2CCNC2)ccc1-c1cccc(F)c1 (single isomer, unassigned) [Compound 085] |
| < 100 nM | CCOc1cc(C(=O)N(C)[C@@H](c2cncc3cn[nH]c23)[C@@H]2CCNC2)ccc1-c1cccc(F)c1 (single isomer, unassigned) [Compound 087] |
| 100 to 500 nM | CCOc1cc(C(=O)N(C)[C@H](c2cncc3cn[nH]c23)[C@@H]2CCNC2)ccc1-c1cccc(F)c1 (single isomer, unassigned) [Compound 088] |
| < 100 nM | CCOc1cc(C(=O)N(C)[C@@H](c2cncc3cn[nH]c23)[C@H]2CCNC2)ccc1-c1cccc(F)c1 (single isomer, unassigned) [Compound 089] |
| < 100 nM | CCOc1cc(C(=O)N(C)[C@H](CO)c2cncc3cn[nH]c23)ccc1-c1cccc(F)c1 [Compound 001] |
| < 100 nM | CCOc1cc(C(=O)N(C)[C@H](CO)c2cncc3cn[nH]c23)ccc1-c1cc(F)cc(F)c1 [Compound 002] |
| < 100 nM | CCOc1cc(C(=O)N(C)[C@H](CO)c2cncc3cn[nH]c23)ccc1-c1cc(C)cc(F)c1 [Compound 003] |
| < 100 nM | CCOc1cc(C(=O)N(C)[C@H](CO)c2cncc3cn[nH]c23)ccc1-c1cccc(Cl)c1 [Compound 004] |
| < 100 nM | CCOc1cc(C(=O)N(C)[C@H](CO)c2cncc3cn[nH]c23)ccc1-c1ccccc1 [Compound 005] |
| < 100 nM | CN(C(=O)c1ccc(-c2cccc(Cl)c2)c(OC2CC2)c1)[C@H](CO)c1cncc2cn[nH]c12 [Compound 006, (S)-3′-chloro-2-cyclopropoxy-N-(2-hydroxy-1-(1H-pyrazolo[4,3-c]pyridin-7-yl)ethyl)-N-methyl-[1,1′-biphenyl]-4-carboxamide] |
| 1000 to 15000 nM | CCOc1cc(C(=O)N(C)[C@H](C[C@H](C)O)c2cncc3cn[nH]c23)ccc1-c1cccc(Cl)c1 [Compound 008] |
| < 100 nM | CCOc1cc(C(=O)N(C)[C@@H](CCO)c2cncc3cn[nH]c23)ccc1-c1cccc(F)c1 [Compound 009] |
| 1000 to 15000 nM | CCOc1cc(C(=O)N(C)[C@@H](CCO)c2cncc3cn[nH]c23)ccc1-c1ccccc1 [Compound 010] |
| 1000 to 15000 nM | CN(C(=O)c1ccc(-c2cccc(F)c2)c(OC2CC2)c1)[C@@H](CCO)c1cncc2cn[nH]c12 [Compound 011] |
| 100 to 500 nM | CN(C(=O)c1ccc(-c2cccc(Cl)c2)c(OC2CC2)c1)[C@@H](CCO)c1cncc2cn[nH]c12 [Compound 012] |
| < 100 nM | CCOc1cc(C(=O)N(C)[C@H](COC)c2cncc3cn[nH]c23)ccc1-c1cccc(F)c1 [Compound 013] |
| < 100 nM | CCOc1cc(C(=O)N(C)[C@H](COC)c2cncc3cn[nH]c23)ccc1-c1cccc(Cl)c1 [Compound 014] |
| < 100 nM | CCOc1cc(C(=O)N(C)[C@H](CCOC)c2cncc3cn[nH]c23)ccc1-c1cccc(F)c1 [Compound 015] |
| > 15000 nM | CCOc1cc(C(=O)N(C)[C@H](CCOC)c2cncc3cn[nH]c23)ccc1-c1cccc(Cl)c1 [Compound 016] |
| < 100 nM | CCOc1cc(C(=O)N(C)[C@H](CO)c2cnc(C)c3cn[nH]c23)ccc1-c1cccc(F)c1 [Compound 017] |
| < 100 nM | CCOc1cc(C(=O)N(C)[C@H](CO)c2cnc(C)c3cn[nH]c23)ccc1-c1cc(F)cc(F)c1 [Compound 018] |

| IC50 | SMILES |
| --- | --- |
| < 100 nM | CCOc1cc(C(=O)N(C)[C@H](CO)c2cnc(C)c3cn[nH]c23)ccc1-c1cccc(Cl)c1 [Compound 019] |
| 100 to 500 nM | CCOc1cc(C(=O)N(C)[C@H](CO)c2cnc(C)c3cn[nH]c23)ccc1-c1ccccc1 [Compound 020] |
| 100 to 500 nM | CCOc1cc(C(=O)N(C)[C@H](CO)c2cnc(C)c3cn[nH]c23)ccc1-c1cc(C)cc(F)c1 [Compound 021] |
| < 100 nM | Cc1ncc([C@@H](CO)N(C)C(=O)c2ccc(-c3cccc(F)c3)c(OC3CC3)c2)c2[nH]ncc12 [Compound 022] |
| < 100 nM | CCOc1cc(C(=O)N(C)[C@@H](c2cnc(C)c3cn[nH]c23)[C@@H](C)O)ccc1-c1cccc(Cl)c1 [Compound 024] |
| < 100 nM | Cc1ncc([C@@H](CCO)N(C)C(=O)c2ccc(-c3cccc(Cl)c3)c(OC3CC3)c2)c2[nH]ncc12 [Compound 026] |
| < 100 nM | CCOc1cc(C(=O)N(C)[C@@H](CO)c2cnc(C)c3cn[nH]c23)ccc1-c1cccc(F)c1 [Compound 027] |
| > 15000 nM | CCOc1cc(C(=O)N(C)[C@@H](CCO)c2cnc(C)c3cn[nH]c23)ccc1-c1ccccc1 [Compound 028] |
| < 100 nM | CCOc1cc(C(=O)N(C)[C@@H](CCO)c2cnc(C)c3cn[nH]c23)ccc1-c1cccc(Cl)c1 [Compound 029] |
| > 15000 nM | CCOc1cc(C(=O)N(C)[C@@H](CCO)c2cnc(C)c3cn[nH]c23)ccc1-c1cccc(C#N)c1 [Compound 030] |
| > 15000 nM | Cc1ncc([C@H](CCO)N(C)C(=O)c2ccc(-c3cccc(F)c3)c(OC3CC3)c2)c2[nH]ncc12 [Compound 031] |
| 100 to 500 nM | CCOc1cc(C(=O)N(C)[C@H](CO)c2cnc(CC)c3cn[nH]c23)ccc1-c1cc(C)cc(F)c1 [Compound 032] |
| < 100 nM | CCOc1cc(C(=O)N(C)[C@H](CO)c2cnc(CC)c3cn[nH]c23)ccc1-c1cccc(F)c1 [Compound 033] |
| > 15000 nM | CCc1ncc([C@@H](CO)N(C)C(=O)c2ccc(-c3cccc(F)c3)c(OC3CC3)c2)c2[nH]ncc12 [Compound 034] |
| < 100 nM | CCc1ncc([C@@H](CO)N(C)C(=O)c2ccc(-c3cc(F)cc(F)c3)c(OC3CC3)c2)c2[nH]ncc12 [Compound 035] |
| < 100 nM | CCOc1cc(C(=O)N(C)[C@H](CO)c2cnc(CO)c3cn[nH]c23)ccc1-c1cccc(Cl)c1 [Compound 036] |
| < 100 nM | CCOc1cc(C(=O)N(C)[C@H](CO)c2cnc(CO)c3cn[nH]c23)ccc1-c1cccc(F)c1 [Compound 037] |
| < 100 nM | CCOc1cc(C(=O)N(C)[C@H](CCN)c2cncc3cn[nH]c23)ccc1-c1cccc(F)c1 [Compound 038] |
| 1000 to 15000 nM | CCOc1cc(C(=O)N(C)[C@H](CCNC)c2cncc3cn[nH]c23)ccc1-c1cccc(F)c1 [Compound 039] |
| < 100 nM | CCOc1cc(C(=O)N(CCO)Cc2cncc3cn[nH]c23)ccc1-c1cccc(F)c1 [Compound 041] |
| < 100 nM | CCOc1cc(C(=O)N(CCO)Cc2cncc3cn[nH]c23)ccc1-c1cccc(Cl)c1 [Compound 042] |

| IC50 | SMILES |
| --- | --- |
| 100 to 500 nM | CCOc1cc(C(=O)N(CCO)Cc2cnc(N)c3cn[nH]c23)ccc1-c1cccc(C#N)c1 [Compound 043] |
| 100 to 500 nM | CCOc1cc(C(=O)N(CCO)Cc2cnc(NC)c3cn[nH]c23)ccc1-c1cccc(C#N)c1 [Compound 044] |
| < 100 nM | CCOc1cc(C(=O)N(Cc2cnc(C)c3cn[nH]c23)C2CC2O)ccc1-c1cccc(F)c1 (centres unmarked) [Compound 045] |
| < 100 nM | CCOc1cc(C(=O)N(CCO)Cc2cnc(N)c3cn[nH]c23)ccc1-c1cccc(Cl)c1 [Compound 046] |
| 100 to 500 nM | CCOc1cc(C(=O)N(CCO)Cc2cnc(N)c3cn[nH]c23)ccc1-c1cccc(F)c1 [Compound 047] |
| < 100 nM | CCOc1cc(C(=O)N(CCO)Cc2cnc(NC)c3cn[nH]c23)ccc1-c1cccc(F)c1 [Compound 048] |
| < 100 nM | CCOc1cc(C(=O)N(CCO)Cc2cnc(NC)c3cn[nH]c23)ccc1-c1cccc(Cl)c1 [Compound 049] |
| 1000 to 15000 nM | CCOc1cc(C(=O)N(CCO)Cc2cnc(CNC)c3cn[nH]c23)ccc1-c1cccc(F)c1 [Compound 050] |
| < 100 nM | CCOc1cc(C(=O)N(CCO)Cc2cnc(C)c3cn[nH]c23)ccc1-c1cccc(F)c1 [Compound 051] |
| > 15000 nM | CCOc1cc(C(=O)N(Cc2cnc(C)c3cn[nH]c23)C(C)CO)ccc1-c1cccc(F)c1 (centres unmarked) [Compound 052] |
| < 100 nM | CCOc1cc(C(=O)N(Cc2cnc(C)c3cn[nH]c23)CC(C)(C)O)ccc1-c1cccc(F)c1 [Compound 053] |
| > 15000 nM | CCOc1cc(C(=O)N(Cc2cnc(C)c3cn[nH]c23)C2COC2)ccc1-c1cccc(F)c1 [Compound 054] |
| < 100 nM | CCOc1cc(C(=O)N(CCN)Cc2cncc3cn[nH]c23)ccc1-c1cccc(F)c1 [Compound 055] |
| < 100 nM | CCOc1cc(C(=O)N(Cc2cnc(C)c3cn[nH]c23)[C@H]2CC[C@@H]2O)ccc1-c1cccc(F)c1 [Compound 056] |
| 100 to 500 nM | CCOc1cc(C(=O)N(Cc2cnc(C)c3cn[nH]c23)[C@@H]2CC[C@H]2O)ccc1-c1cccc(F)c1 [Compound 057] |
| < 100 nM | CCOc1cc(C(=O)N(C[C@@H](C)O)[C@H](C)c2cnc(C)c3cn[nH]c23)ccc1-c1cccc(F)c1 [Compound 058] |
| 1000 to 15000 nM | CCOc1cc(C(=O)N(C[C@H](C)O)[C@H](C)c2cnc(C)c3cn[nH]c23)ccc1-c1cccc(F)c1 [Compound 059] |
| > 15000 nM | CCOc1cc(C(=O)N(C[C@@H](C)O)[C@@H](C)c2cnc(C)c3cn[nH]c23)ccc1-c1cccc(F)c1 [Compound 060] |
| > 15000 nM | CCOc1cc(C(=O)N(C[C@H](C)O)[C@@H](C)c2cnc(C)c3cn[nH]c23)ccc1-c1cccc(F)c1 [Compound 061] |
| < 100 nM | CCOc1cc(C(=O)N(CC(C)(C)O)C(C)c2cnc(C)c3cn[nH]c23)ccc1-c1cccc(F)c1 (centres unmarked) [Compound 062] |
